Experiment [1] relates to antiserum S 4612 (sheep antiserum against triazine). Nature of the experiment: Competitive ELISA, sheep triazine antiserum with heterologous POD conjugate atra(deethyl-4-ED)-SATP-PODp(MH). It is filed as binding. Particulars: 50 mU/ml; for lower detection limit: concentration at which signal is 80% of maximum signal; for cross reaction (%): relative to terbutylazine (quotient of hapten concentrations at half maximum signal). On the procedure:
10 sheep are immunized with triazine immunogen according to example 1 in Freund's adjuvant. The dose is […] per animal. The immunizations are repeated over six months or longer, each at intervals of 4 weeks. Antiserum samples are taken from all animals once per month and examined for the presence of triazine antibodies. For this purpose a series of terbutylazine standards are measured in a competitive ELISA using the heterologous POD conjugate atra(deethyl-4-ED)-SATP-POD(MH) according to example 3. The procedure for this measurement is described in detail in example 5.
(§1) Microtitre plates (Maxisorp F96,Nunc Co. Order No. 4-42404) are coated with antibodies against the Fc part of sheep IgG which have been obtained by immunosorptive purification of the IgG fraction from donkey antiserum. The donkey antibody is dissolved in the coating buffer at a concentration of 10 µg/ml protein and 100 μl of this solution is pipetted into each well of the microtitre plate. After incubating for 1 hour at room temperature while shaking, the solution is discarded and the plate is washed three times with washing solution.
(§2) Sheep antiserum against triazine is diluted 1:50,000 with incubation buffer. Each well of the microtitre plate is coated with 100 μl of the diluted solution. During the incubation period (1 hour, conditions as above) the IgG molecules from the sheep serum bind to the donkey antibodies bound to the wall. They are subsequently washed as above.
A series of solutions is prepared which contain terbutylazine at concentrations of 1000/500/250/125/62.5/31/16/8/4/0 ng/l as well as the conjugate atra(deethyl-4-ED)-SATP-PODp(MH) according to the invention at a standard concentration of 50 mU/ml in the incubation buffer.
Dilution series of other triazines are prepared in a similar manner with maximum concentrations of […] (atrazine, cyanazine and desethylterbutylazine), 10,000 ng/l (propazine, simazine, desethylatrazine) and 100,000 ng/l (desisopropylatrazine) and dilution steps of 1:2 which also contain the said hapten-POD conjugate.
(§3) The wells of the microtitre plate which were precoated as previously described, are filled with these solutions (100 μl in each case), incubated for 1 hour and subsequently washed as described.
(§4) The free hapten molecules compete with the hapten-POD conjugate for the limited amount of hapten-specific antibodies on the wall of the wells. The less conjugate is bound the more free hapten is present in the solution and the better the hapten is recognized by the antibodies.
(§5) Every well is filled with 100 μl substrate solution and incubated while shaking until the colour development in the samples without hapten appears subjectively to be high enough. Then the absorbance in all wells is determined as a differential measurement at the wavelengths 405/492 nm.
(§6) In the graph of the measured signal as a function of the hapten concentration used, the "relative affinity", i.e. the hapten concentration whose measured signal is half the size of the maximum signal (at a hapten concentration of 0), is determined for each triazine compound. In this process a linear interpolation is made between selected measurement points on the curve. This gives the cross-reaction of the triazines in relation to terbutylazine as the quotient [formula]
(§7) The "lower limit of detection" is determined in an analogous manner for each triazine compound as the concentration at which the measured signal is 80% of the maximum signal.
On the technique in general: In an ELISA, binding on a coated surface is turned into a signal by an enzyme label.

The test system is the same in experiment [2]. Description: Competitive ELISA, sheep triazine antiserum with homologous POD conjugate atra(terbutyl-6ah)-OSu-POD. It counts as binding. Particulars: 30 mU/ml; for lower detection limit / lower detection limit (ng/l): concentration at which signal is 80% of maximum signal; for cross reaction (%): relative to terbutylazine (quotient of hapten concentrations at half maximum signal). On the procedure:
as §1, §2, §3, §4, §5, §6, §7
In a second experiment the cross reaction and the lower limit of detection for each of the above-mentioned triazines is determined in an analogous manner using the homologous conjugate atra(terbutyl-6ah)-OSu-POD. In this case the POD concentration is 30 mU/ml. The highest hapten concentrations are 10,000 ng/l for terbutylazine and 100,000 ng/l for all triazines.
Eight further hapten concentrations are prepared by serial dilution of these solutions in a ratio of 1:2 and a blank value without triazine is determined in each case.

Take `CCNc1nc(Cl)nc(NCC)n1` [simazine]: the “lower detection limit” value in experiment [1] was found to be 60 ng/L; in experiment [2] it was 4.100 ng/L. Moreover, the “cross reaction (%)” value came out at 10% in experiment [1] and 0.9% in experiment [2].

Take `CCNc1nc(Cl)nc(NC(C)(C)C#N)n1` [cyanazine]: in experiment [1], the “lower detection limit” value amounted to 10 ng/L and the “cross reaction (%)” value was found to be 102%. In experiment [2], the “lower detection limit” value came to 310 ng/L and the cross reaction (%) was found to be 11%.

As for `CCNc1nc(Cl)nc(NC(C)C)n1` [atrazine], in experiment [1], the “lower detection limit” value was found to be 17 ng/L and the “cross reaction (%)” value is given as 73%. In experiment [2], the “lower detection limit (ng/l)” value is 1,600 ng/l and the cross reaction (%) came out at 4%.

Take `CCNc1nc(Cl)nc(NC(C)(C)C)n1` [terbutylazine]: in experiment [1], the “lower detection limit” value is 12 ng/L and the “cross reaction (%)” value stood at 100%. In addition, in experiment [2], the “lower detection limit” value came to 100 ng/L and the cross reaction (%) stood at 100%.

In the case of `CC(C)Nc1nc(N)nc(Cl)n1` [desethylatrazine], in experiment [1], the “lower detection limit” value came to 90 ng/L and the “cross reaction (%)” value is on record as 7%. In experiment [2], the “lower detection limit (ng/l)” value is recorded as 9,500 ng/l and the cross reaction (%) was below 0.3%.

In the case of `CC(C)(C)Nc1nc(N)nc(Cl)n1` [desethylterbutylazine], the entries for the “lower detection limit” value in experiment [1] and in experiment [2] were 10 ng/L and 430 ng/L, respectively. Also, the “cross reaction (%)” value in experiment [1] is recorded as 102%; in experiment [2], 9%.

Consider `CC(C)Nc1nc(Cl)nc(NC(C)C)n1` [propazine], for which, in experiment [1], the “lower detection limit” value was 24 ng/L and the “cross reaction (%)” value is on record as 26%. In experiment [2], the “lower detection limit” value was 620 ng/L and the cross reaction (%) is listed as 8%.

The values above are taken from US5573922A, “Immunological detection method for triazines” (Boehringer Mannheim GmbH, priority 1993, dated 1996).
